“And” between values parts separate entries of the source, which are not always exact repeats. Identical values can stand only once. Counter-ions that a name gives are not always drawn. Like-named read-outs stand apart in the source and are kept apart here. A value given as a limit tells only on which side of the number the result lay.

The target in one data set is rat nNOS (Rattus norvegicus (Rat), UniProt P29476). Kind of data set: Purified NOS enzyme assay (hemoglobin capture), rat nNOS. Type of data set: biochemical.
The next data set has as its target bovine eNOS (Bos taurus (Bovine), UniProt P29473). Kind of data set: Purified NOS enzyme assay (hemoglobin capture), bovine eNOS. Type of data set: biochemical. The conditions noted are these: for Ki: bovine eNOS, Ki calculated from IC50, average of at least two replicates; for Selectivity n/e: ratio of respective Ki values (eNOS/nNOS).
In the next data set the target is human nNOS (Homo sapiens (Human), UniProt P29475). The experiment in a line: Purified NOS enzyme assay (hemoglobin capture), human nNOS. Type of data set: biochemical.
A further data set has as its target murine macrophage iNOS (Mus musculus (Mouse), UniProt P29477). The following applies: for Selectivity n/i: ratio of respective Ki values (iNOS/nNOS); for Ki: read-out: Ki iNOS, murine iNOS, Ki calculated from IC50, average of at least two replicates.
Another data set has as its system Caco-2 cells. The conditions noted are these: background statement on prior art compound; cited from earlier work.
A further data set deals with newborn rabbit kits. The following applies: administered intravenously to the dam; cited from earlier work.
Where [1] appears, read: rat nNOS, Ki calculated from IC50, average of at least two replicates, read-out: Ki nNOS.

Regarding `Cl.Cl.Nc1ccc2ccc(CNCCc3cccc(F)c3)cc2n1` [Compound 5, 7-[(3-Fluorophenethylamino)methyl]quinolin-2-amine Dihydrochloride], the Ki was 0.074 µM on rat nNOS (purified nNOS, read-out: inhibition of nNOS); 0.075 µM and 0.074 µM on rat nNOS (rat nNOS, Ki calculated from IC50, average of at least two replicates, Dihydrochloride, read-out: Ki nNOS); 0.485 µM at bovine eNOS; 0.493 µM at human nNOS (human nNOS, Ki calculated from IC50, average of at least two replicates); 9.14 µM on murine macrophage iNOS. In addition, the “selectivity for nNOS over eNOS” value on bovine eNOS is recorded as “approximately 6 fold”. Besides, the Selectivity n/e at bovine eNOS is recorded as 6.2. The “Selectivity (Rat/Human)” value at human nNOS (ratio of respective Ki values, Ki-human/Ki-rat) is recorded as 6.7. The Selectivity n/i at murine macrophage iNOS was determined as 124.
With `Cl.Cl.Nc1ccc2ccc(CCNCc3cccc(F)c3)cc2n1` [Compound 6, 7-[2-(3-Fluorobenzylamino)ethyl]quinolin-2-amine Dihydrochloride], the Ki was 0.254 µM on rat nNOS (setting [1]), 7.77 µM at bovine eNOS and 24.5 µM at murine macrophage iNOS. At bovine eNOS, the Selectivity n/e was found to be 30. Also, the Selectivity n/i at murine macrophage iNOS is 97.
Turning to `Cl.Cl.Nc1ccc2ccc(CNCCCc3cccc(F)c3)cc2n1` [Compound 9, 7-{2-[3-(3-Fluorophenyl(propylamino)methyl]}quinolin-2-amine Dihydrochloride], the Ki was 0.06 µM on rat nNOS (setting [1]), 3.69 µM on bovine eNOS and 32.3 µM on murine macrophage iNOS.
Turning to `Cl.Cl.Nc1ccc2ccc(CNCCCc3cccc(F)c3)cc2n1` [Compound 9], on bovine eNOS, the Selectivity n/e is given as 62. Besides, the Selectivity n/i on murine macrophage iNOS stood at 538.
`Cl.Cl.Nc1ccc2ccc(CCNCCc3ccc(Cl)cc3)cc2n1` [Compound 16, 7-[(4-Chlorophenethylamino)ethyl]quinolin-2-amine Dihydrochloride]: the Ki on rat nNOS (setting [1]) was 0.212 µM. In addition, on bovine eNOS, the Ki was 9.89 µM and the Selectivity n/e is 47. On murine macrophage iNOS, the Selectivity n/i stood at 91 and the Ki was 19.2 µM.
Turning to `Nc1ccc2cc(CNCCc3cccc(F)c3)ccc2n1` [Compound 10, 6-[(3-Fluorophenethylamino)methyl]quinolin-2-amine Dihydrochloride], at rat nNOS (setting [1]), the Ki was > 5.7 µM.
On to `[H]/N=C(/Nc1cccc(CNCCc2cccc(F)c2)c1)c1cccs1` [Compound 3], for which, in the data set on Caco-2 cells, the “Caco-2 permeability” value is on record as “poor”.
Regarding `Cl.Cl.Nc1ccc2ccc(CCNCCc3ccc(F)cc3)cc2n1` [Compound 14, 7-[(4-Fluorophenethylamino)ethyl]quinolin-2-amine Dihydrochloride], the Ki on rat nNOS (setting [1]) is 0.183 µM. Moreover, on bovine eNOS, the Ki is 8.86 µM and the Selectivity n/e was found to be 37. Moreover, at murine macrophage iNOS, the Selectivity n/i turned out to be 280 and the Ki was 51.2 µM.
For `Cc1cc(N)nc(C[C@@H]2CNC[C@@H]2NCCNCCc2cccc(F)c2)c1` [Compound 1], the “effect on hypoxic-ischemic brain damage phenotype” value with newborn rabbit kits is listed as “reverses a hypoxic-ischemic brain damage phenotype”.
Consider `Nc1ccc2cc(CCNCCc3cccc(F)c3)ccc2n1` [Compound 12, 6-[(3-Fluorophenethylamino)ethyl]quinolin-2-amine Dihydrochloride], for which, at rat nNOS (setting [1]), the Ki was > 5.7 µM.
Same read-out and setting: under `Nc1ccc2cc(CCNCc3cccc(F)c3)ccc2n1` [Compound 11, 6-[2-(3-Fluorobenzylamino)ethyl]quinolin-2-amine Dihydrochloride] stands > 5.7 µM.

The record behind these values is US9212144B2, “2-aminoquinoline-based compounds for potent and selective neuronal nitric oxide synthase inhibition” (priority 2014, dated 2015).
